Test results reported in US7429578B2, “Tricyclic inhibitors of poly(ADP-ribose) polymerases” (Agouron Pharmaceuticals, Inc., priority 1999, dated 2008).

What was measured:
purified PARP protein = purified PARP protein (Homo sapiens, UniProt P09874); assay: PARP enzyme inhibition assay; format: biochemical; conditions: [32P]NAD+ incorporation, 500 μM NAD+, 25° C.; two values in a cell = tested twice; read-out: Inhibition Constant Ki
A549 cells = assay: Cytotoxicity potentiation assay (topotecan); format: cell-based; conditions: test compound at 0.4 μM, ratio of IC50 of topotecan alone to IC50 of topotecan with test compound

purified PARP protein, sequence (P09874 whole entry): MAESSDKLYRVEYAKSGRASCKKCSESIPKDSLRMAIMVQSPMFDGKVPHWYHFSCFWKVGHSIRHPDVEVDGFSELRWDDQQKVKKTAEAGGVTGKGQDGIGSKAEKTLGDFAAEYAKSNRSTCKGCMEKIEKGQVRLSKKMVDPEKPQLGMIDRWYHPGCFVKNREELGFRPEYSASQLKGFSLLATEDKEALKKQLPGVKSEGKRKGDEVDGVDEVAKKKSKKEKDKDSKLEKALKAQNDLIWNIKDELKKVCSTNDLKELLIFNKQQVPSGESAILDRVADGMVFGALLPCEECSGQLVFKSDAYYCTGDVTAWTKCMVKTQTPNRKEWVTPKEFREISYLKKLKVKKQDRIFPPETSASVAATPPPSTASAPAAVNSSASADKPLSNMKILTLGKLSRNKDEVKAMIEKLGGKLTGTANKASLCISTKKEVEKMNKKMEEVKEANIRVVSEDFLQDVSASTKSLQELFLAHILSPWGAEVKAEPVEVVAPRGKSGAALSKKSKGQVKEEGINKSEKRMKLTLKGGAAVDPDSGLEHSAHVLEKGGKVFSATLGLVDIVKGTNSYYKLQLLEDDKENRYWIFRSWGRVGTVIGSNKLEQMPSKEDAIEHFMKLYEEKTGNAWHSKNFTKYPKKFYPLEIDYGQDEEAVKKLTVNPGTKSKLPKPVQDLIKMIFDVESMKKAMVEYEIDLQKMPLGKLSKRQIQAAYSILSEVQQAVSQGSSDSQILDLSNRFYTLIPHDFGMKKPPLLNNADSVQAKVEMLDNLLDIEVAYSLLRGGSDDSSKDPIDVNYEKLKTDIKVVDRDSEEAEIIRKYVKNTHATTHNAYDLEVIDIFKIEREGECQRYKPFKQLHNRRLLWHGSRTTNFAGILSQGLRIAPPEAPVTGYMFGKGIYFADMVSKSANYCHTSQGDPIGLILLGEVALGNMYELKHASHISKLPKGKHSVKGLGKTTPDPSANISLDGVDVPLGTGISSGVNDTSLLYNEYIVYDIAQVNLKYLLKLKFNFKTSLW

Row | Compound | Ki (purified PARP protein) | melting point | Cytotoxicity Potentiation PF50 (A549 cells)
1 | O=C1NCCc2c(-c3cccc(C(F)(F)F)c3)[nH]c3cccc1c23 [Compound 30, 2-(3-Trifluoromethyl-phenyl)-1,3,4,5-tetrahydro-azepino[5,4,3-cd]indol-6-one] | 6.3 nM | 212.5 to 213.5 °C | 2.4
2 | O=C1NCCc2c(-c3ccc(Cl)cc3)[nH]c3cccc1c23 [GGG, 2-(4-Chloro-phenyl)-1,3,4,5-tetrahydro-azepino[5,4,3-cd]indol-6-one] | 4.1 nM | 250 to 252 °C | 1.9
3 | CNCc1cccc(-c2[nH]c3cc(F)cc4c3c2CCNC4=O)c1 [HHHH, 8-Fluoro-2-(3-methylaminomethyl-phenyl)-1,3,4,5-tetrahydro-azepino[5,4,3-cd]indol-6-one] | 2.2 nM | 270 to 272 °C (dec.) | 1.9
4 | O=C1NCCc2c(-c3ccc(CCN4CCCC4)cc3)[nH]c3cccc1c23 [MMM, 2-[4-(2-Pyrrolidin-1-yl-ethyl)-phenyl]-1,3,4,5-tetrahydro-azepino[5,4,3-cd]indol-6-one] | 9.4 nM | 228 to 229 °C (dec.) | 2.3
5 | O=C1NCCc2c(-c3ccc(CN4CCCC4)c(F)c3)[nH]c3cccc1c23 [QQQ, 2-(3-Fluoro-4-pyrrolidin-1-ylmethyl-phenyl)-1,3,4,5-tetrahydro-azepino[5,4,3-cd]indol-6-one] | 10.2 nM | 139 to 140 °C (dec.) | 2.3
6 | O=C1NCCc2c(-c3cccc(Oc4ccc(F)cc4)c3)[nH]c3cccc1c23 [UU, 2-[3-(4-Fluoro-phenoxy)-phenyl]-1,3,4,5-tetrahydro-azepino[5,4,3-cd]indol-6-one] | 10 nM | 240 to 241 °C | 1.8
7 | O=C1NCCc2c(-c3ccc(-c4ccccc4)cc3)[nH]c3cccc1c23 [VV, 2-Biphenyl-4-yl-1,3,4,5-tetrahydro-azepino[5,4,3-cd]indol-6-one] | 10 nM | 277 to 279 °C (dec.) | 2.0

Continued, in another order:

Row | Ki (purified PARP protein) | melting point | Compound | Cytotoxicity Potentiation PF50 (A549 cells)
8 | 7.2 nM | 222 to 225 °C | CN(C)Cc1cccc(-c2[nH]c3cccc4c3c2CCNC4=O)c1 [Compound 22, 2-(3-(N,N-Dimethylamino)methylphenyl)-3,4,5,6-tetrahydro-1H-azepino[5,4,3-cd]indol-6-one] | 2.3
9 | 5.3 nM | 190 to 192 °C | CNCc1cccc(-c2[nH]c3cccc4c3c2CCNC4=O)c1 [Compound PP, 2-(3-(N-Methylamino)methylphenyl)-3,4,5,6-tetrahydro-1H-azepino[5,4,3-cd]indol-6-one] | 2.3
10 | 9.4 nM | 221.5 to 222.5 °C | CN(C)Cc1ccc(-c2[nH]c3cccc4c3c2CCNC4=O)cc1F [Compound PPP, 2-(4-Dimethylaminomethyl-3-fluoro-phenyl)-1,3,4,5-tetrahydro-azepino[5,4,3-cd]indol-6-one] | 2.1
11 | 7.4 nM | 219 to 223 °C (dec.) | O=C1NCCc2c(-c3cccc(CN4CCCC4)c3)[nH]c3cccc1c23 [TTTT, 2-(3-Pyrrolidin-1-ylmethylphenyl)-3,4,5,6-tetrahydro-1H-azepino[5,4,3-cd]indol-6-one] | 1.6
